Results from patent US20060074243A1, “Hydroxamic acid and amide compounds and their use as protease inhibitors” (Pharmacia Corporation, priority 2002, published 2006).

Assays:
Assay in all cases: In vitro MMP inhibition analysis (fluorogenic peptide substrate cleavage), Ki
Format in all cases: biochemical
[1] = molecular target: T1, Human recombinant MMP-1 (Homo sapiens, UniProt P03956)
T1 construct: made in house; host or cells: MMP-1-transfected HT-1080 cells (spent media)
T1 sequence (P03956 100-469): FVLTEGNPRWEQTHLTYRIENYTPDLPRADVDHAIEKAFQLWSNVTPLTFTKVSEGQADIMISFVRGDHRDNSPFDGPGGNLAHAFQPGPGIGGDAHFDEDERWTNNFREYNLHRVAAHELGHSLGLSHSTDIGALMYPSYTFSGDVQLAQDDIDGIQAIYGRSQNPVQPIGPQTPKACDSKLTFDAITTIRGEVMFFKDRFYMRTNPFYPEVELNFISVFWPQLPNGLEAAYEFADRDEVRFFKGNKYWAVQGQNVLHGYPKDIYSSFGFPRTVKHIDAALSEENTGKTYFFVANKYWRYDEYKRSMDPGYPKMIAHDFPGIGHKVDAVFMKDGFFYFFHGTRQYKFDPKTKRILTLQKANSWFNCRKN
Protocol: (§1) Several compounds and salts were analyzed in an in vitro assay to determine their ability to inhibit the MMP cleavage of peptide substrates. Inhibition constant (Ki) were calculated from the assayed compound-MMP interactions.
(§2) Human recombinant MMP-1, MMP-2, MMP-9, MMP-13, and MMP-14 were used in this assay. All enzymes were prepared in Assignee's laboratories following usual laboratory procedures. Protocols for the preparation and use of these enzymes are available in the scientific literature. See, e.g., Enzyme Nomenclature (Academic Press, San Diego, Calif., 1992) (and the citations therein). See also, Frije et al., J. Biol. Chem., 26(24), 16766-73 (1994).
The MMP-1 proenzyme was purified from the spent media of MMP-1-transfected HT-1080 cells provided by Dr. Harold Welgus of Washington University (St. Louis, Mo.). The protein was purified on a zinc chelating column.
(§3) All MMPs were activated using 4-aminophenylmercuric acetate (“APMA”, Sigma Chemical, St. Louis, Mo.) or trypsin. MMP-9 also was activated using human recombinant MMP-3 (purified in Assignee's laboratory following standard cloning and purification techniques).
(§4) The following fluorogenic, methoxycoumarin-containing polypeptide substrate (I) was used in the MMP inhibition assays: MCA-ArgProLeuGlyLeuDpaAlaArgGluArgNH2 (I) “MCA” is 7-methoxycoumarin-4-yl acetyl. Substrate (I) was prepared Assignee's laboratory. In the absence of MMP inhibitory activity, the substrate is cleaved at the Gly-Leu peptide bond. This cleavage separates the highly fluorogenic peptide from the 2,4-dinitrophenyl quencher, thus resulting in increase of fluorescent intensity.
(§5) The stock solutions of the assayed compounds and salts were prepared in […] (DMSO). These stock solutions were diluted in Buffer A (100 mM Tris-HCl, 100 mM NaCl, 10 mM CaCl2, 0.05% polyoxyethylene 23 lauryl ether, pH 7.5) to obtain solutions with different compound concentrations, i.e., assay solutions with different concentrations of the assayed […] compound. The experiment controls contained the same amount of Buffer A/DMSO as the assayed sample, but contained none of the tested compound or salt.
(§6) The assays from which the Ki determinations were made were performed as follows. The assayed compound samples were incubated in separate wells of untreated white polystyrene plates (Nunc Nalgene International, Rochester, N.Y.), and analyzed on a Tecan SpectraFlour Plus plate reader. The excitation wavelength was 330 nm, and the emission wavelength—420 nm. All samples (assayed compounds and controls) were incubated in separate plate wells at room temperature for 1 hr in the presence of 4 μM of MMP substrate (I). In the absence of MMP inhibitory activity, substrate (I) was cleaved at the Gly-Leu bond resulting in an increase of relative fluorescence. Inhibition was observed as a reduced rate of this increase in relative fluorescence. […] This protocol is a modification of method by Knight et al., FEBS Lett., 296(3), 263-266 (1992). Apparent inhibitory constants were determined by non-linear regression of reaction velocity as a function of inhibitor and enzyme concentration using Morrison's equation, as described by Kuzmic, Anal. Biochem. 286, 45-50 (2000). Modifications were made in the non-linear regression method to allow a common control reaction rate and effective enzyme concentration to be shared between all dose-response relationships on a given assay plate. Since the substrate concentration was chosen to be at or below the Km, the apparent Ki's from this analysis were reported as Ki's without correction for the influence of substrate.
(§7) The above protocols were used to determine Ki constants for the compounds in Examples 2-35 above. All Ki values in Table 1 are given in nM units.

[2] = molecular target: T2, Human recombinant MMP-2 (Homo sapiens, UniProt P08253)
T2 construct: made in house; host or cells: MMP-2-transfected p2AHT2 cells
T2 sequence (P08253 110-660): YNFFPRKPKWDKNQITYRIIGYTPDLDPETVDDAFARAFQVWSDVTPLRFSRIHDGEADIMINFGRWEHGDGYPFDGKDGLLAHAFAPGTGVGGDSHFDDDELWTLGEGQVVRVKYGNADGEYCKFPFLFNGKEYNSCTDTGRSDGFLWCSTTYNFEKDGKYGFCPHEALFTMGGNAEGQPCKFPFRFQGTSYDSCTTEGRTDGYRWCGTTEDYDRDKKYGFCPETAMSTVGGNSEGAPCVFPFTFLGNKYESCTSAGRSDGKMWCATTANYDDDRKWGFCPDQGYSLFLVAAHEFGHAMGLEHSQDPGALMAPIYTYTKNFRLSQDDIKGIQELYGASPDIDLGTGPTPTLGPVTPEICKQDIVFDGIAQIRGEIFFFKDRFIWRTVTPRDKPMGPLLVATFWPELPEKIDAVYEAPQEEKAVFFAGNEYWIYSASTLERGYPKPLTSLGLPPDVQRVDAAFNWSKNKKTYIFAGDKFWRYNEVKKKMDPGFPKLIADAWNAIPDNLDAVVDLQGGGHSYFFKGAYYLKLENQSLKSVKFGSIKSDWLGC
Protocol: as §1, §2
The MMP-2 proenzyme was purified by gelatin Sepharose chromatography from MMP-2-transfected p2AHT2 cells provided by Dr. Gregory Goldberg of Washington University (St. Louis, Mo.).
as §3, §4, §5, §6, §7

[3] = molecular target: T3, Human recombinant MMP-14 (Homo sapiens, UniProt P50281)
T3 construct: The catalytic domain enzyme was expressed in E. coli inclusion bodies, solubilized in urea; made in house
Protocol: as §1, §2
The MMP-14 full length cDNA was provided by Dr. Gregory Goldberg of Washington University (St. Louis, Mo.). The catalytic domain enzyme was expressed in E. coli inclusion bodies, solubilized in urea, purified on a preparative […] reverse phase HPLC column, and then refolded in the presence of zinc acetate and purified for use.
as §3, §4, §5, §6, §7

SMILES | Ki ([1]; Table 1) [nM] | Ki ([2]; Table 1) [nM] | Ki ([3]; Table 1) [nM] | Ki ([1]; Table 2) [nM] | Ki ([2]; Table 2) [nM] | Ki ([3]; Table 2) [nM]
CC(C)(C)N1CCC(C(=O)NO)(S(=O)(=O)c2ccc(-c3ccc(CCCC(F)(F)F)cc3)cc2)CC1 [Example 48] | > 10000 | 1.84 | 8450 |  |  | 
CCN1CCC(C(=O)NO)(S(=O)(=O)c2ccc(-c3ccc(CCCC(F)(F)F)cn3)cc2)CC1 [Example 53] | > 10000 | 0.46 | 3960 |  |  | 
CCN1CCC(C(=O)NO)(S(=O)(=O)c2ccc(-c3noc(-c4ccc(F)cc4)n3)cc2)CC1 [Example 147] |  |  |  | > 10000 | 1.75 | 139
COCCC(C(=O)NO)S(=O)(=O)c1ccc(-c2ccc(CCCC(F)(F)F)cc2)cc1 (stereo not drawn) [Example 47] | > 10000 | 1.17 | 5260 |  |  | 
O=C(NO)C1(S(=O)(=O)c2ccc(-c3ccc(CCCC(F)(F)F)cn3)cc2)CCOCC1 [Example 69] | 3530 | 0.322 | 708 |  |  | 
O=C(NO)C1(S(=O)(=O)c2ccc(-c3ccc(-c4ccncc4)cc3)cc2)CCOCC1 [Example 141] |  |  |  | 257 | 0.041 | 79.4
O=C(NO)C1(S(=O)(=O)c2ccc(-c3ccc(OC(F)(F)C(F)F)cc3)cc2)CCN(C2CC2)CC1 [Example 40] | 508 | 0.074 | 292 |  |  | 
CCN1CCC(C(=O)NO)(S(=O)(=O)c2ccc(-c3ccc(CCC(C)(F)F)cc3)cc2)CC1 [Example 61] | 3040 | 0.11 | 570 |  |  | 
CC(=O)Nc1cnc(-c2ccc(S(=O)(=O)C3(C(=O)NO)CCOCC3)cc2)cn1 [Example 76] |  |  |  | 9630 | 10.3 | 3480
COCCN1CCC(C(=O)NO)(S(=O)(=O)c2ccc(-c3ccc(CCC(C)(F)F)cc3)cc2)CC1 [Example 63] | 1750 | 0.04 | 237 |  |  | 
O=C(NO)C1(S(=O)(=O)c2ccc(-c3ccc(-n4cncn4)cc3)cc2)CCOCC1 [Example 126] |  |  |  | 1240 | 0.18 | 905
O=C(NO)C1(S(=O)(=O)c2ccc(-c3cnc(CCC(F)(F)C(F)(F)F)nc3)cc2)CCOCC1 [Example 142] |  |  |  | > 10000 | 53.7 | > 10000
O=C(NO)C1(S(=O)(=O)c2ccc(-c3cnc(CCCC(F)(F)F)cn3)cc2)CCOCC1 [Example 58] | > 10000 | 2.02 | > 10000 |  |  | 
O=C(NO)C1(S(=O)(=O)c2ccc(-c3cnc(CCC4CC4)cn3)cc2)CCOCC1 [Example 49] | > 10000 | 2.36 | 3620 |  |  | 
COCCN1CCC(C(=O)NO)(S(=O)(=O)c2ccc(-c3ccc(CCCC(F)(F)F)cc3)cc2)CC1 [Example 43] | 6870 | 0.29 | 1590 |  |  | 
COCCN1CCC(C(=O)NO)(S(=O)(=O)c2ccc(-c3cnc(CCC(C)(F)F)cn3)cc2)CC1 [Example 65] | > 10000 | 0.952 | 5970 |  |  | 
COCCN1CCC(C(=O)NO)(S(=O)(=O)c2ccc(-c3ccc(OC(F)(F)C(F)F)cc3)cc2)CC1 [Example 39] | 335 | 0.009 | 185 |  |  | 
CN1CCC(C(=O)NO)(S(=O)(=O)c2ccc(-c3ccc(OC(F)(F)C(F)F)cc3)cc2)CC1 [Example 146] |  |  |  | 1240 | 0.3 | 1050
CCc1cnc(-c2ccc(S(=O)(=O)C3(C(=O)NO)CCOCC3)cc2)nc1 [Example 122] |  |  |  | 3580 | 5.67 | 315
O=C(NO)C1(S(=O)(=O)c2ccc(-c3cnc(OCC(F)(F)C(F)(F)F)cn3)cc2)CCN(C2CC2)CC1 [Example 156] |  |  |  | 7470 | 0.39 | 1140
O=C(NO)C1(S(=O)(=O)c2ccc(-c3cnc(C4CCCC4)cn3)cc2)CCOCC1 [Example 162] |  |  |  | > 10000 | 3.11 | 7350
O=C(NO)C1(S(=O)(=O)c2ccc(-c3ccc(-c4ccccc4)cn3)cc2)CCN(C2CC2)CC1 [Example 151] |  |  |  | 391 | 0.15 | 120
O=C(NO)C1(S(=O)(=O)c2ccc(-c3ncccn3)cc2)CCOCC1 [Example 121] |  |  |  | 1600 | 46.8 | 1880
O=C(NO)C1(S(=O)(=O)c2ccc(-c3ccc(CCCC(F)F)cc3)cc2)CCOCC1 [Example 57] | 2120 | 0.15 | 453 |  |  | 
CCCCOc1ccc(-c2ccc(S(=O)(=O)C3(C(=O)NO)CCN(C4CC4)CC3)cc2)cc1 [Example 120] |  |  |  | 2460 | 0.191 | 311
O=C(NO)C1(S(=O)(=O)c2ccc(-c3cnc(CCC(F)(F)F)cn3)cc2)CCOCC1 [Example 62] | > 10000 | 0.88 | 2930 |  |  | 
